The text below walks through data of PMC11568214, “The impact of 9-azaglycophymine and phenylguanidine derivatives on the proliferation of various breast cancer cell lines in vitro and in vivo” (Scientific Reports, 2024).

Where only a bound is given, the exact number is not on record here.

The test system of data set [1] is MCF-7, MDA-MB-468, BT-474 and HCC1937 breast cancer cells. Put plainly: Fast screening / CV cell viability, breast cancer cell line panel. The data set is classed as cell-based, human. Details: reduction of cell viability: concentration or dose not given beside the values. The note with it: for anti-proliferative / cytotoxic effect: screening at 1, 10 and 50 µM; for concentration below which active in cytotoxicity screening / reduction of cell viability: initial screening; for IC50: Homo sapiens, read-out: IC50 values (National Cancer Institute guideline criterion); for reduction of cell viability: after 72 h of treatment. Here is the method: (§1) For initial testing of the cytotoxic effect of the available glycophymine compounds (Table S2), cells were treated with compound in three concentrations: 1, 10 and 50 µM. Cells were seeded in 96-well plates and allowed to adhere overnight. Then they were treated for 72 h under standard culture conditions. […] For IC50 determination, the compounds were tested at seven concentrations (0.78, 1.56, 3.13, 6.25, 12.5, 25 and 50 µM). Subsequently, the cell viability was determined by using the crystal violet (CV) assay. Moreover, the selected compounds were tested against the mouse breast cancer cell line 4T1 (TNBC) as well. The compounds were prepared initially to obtain a stock solution of 20 mM in DMSO. Later, the working solutions were prepared by mixing the required amount of DMSO stock with the optimal medium for each cell line. The DMSO concentration in the final solution was always maintained lower than 0.5% to avoid any DMSO-derived side effects.
(§2) For CV assays, after 72 h treatment, the treatment medium was discarded from the 96-well plates, and the cells were washed using 50 µL of PBS. Cells were fixed by adding 50 µL of 4% (v/v) paraformaldehyde (PFA) in PBS for 15 min at room temperature (RT). Afterwards, PFA was discarded, and the plates were dried for 15 min at RT. 50 µL of CV working solution (0.1% w/v CV in PBS) were added to the wells, followed by 15 min incubation at RT. Subsequently, the CV solution was discarded, and the plates were washed using aqua bidest. (ddH2O) to remove any remaining CV solution. The plates were left to dry overnight at RT, and then 50 µL of 33% (v/v) acetic acid in ddH2O were added to each well. Finally, the absorbance was measured at 570 nm by using a SpectraMax M5 plate reader (Molecular Devices, California, USA) and at 670 nm as background wavelength. […] Additionally, gefitinib, an approved EGFR inhibitor of the quinazoline family, was tested as anti-proliferative positive control. The data represent the mean ± standard deviation derived from three independent biological replicates. Dose–response curves were generated by four-parametric non-linear regression analysis using the GraphPad Prism software (version: 10.1, San Diego, CA, USA). Based on that, IC50 values and standard deviations were calculated for each replicate individually.

For the next data set, the system named is MDA-MB-468. Put plainly: Crystal violet (CV) cell viability assay, IC50 determination. The data set is classed as cell-based, human. The note with it: Homo sapiens, MDA-MB-468, 72 h treatment, mean ± SD. Here is the method:
as §1, §2

Another data set deals with 4T1. The data set is described as above. It is filed as cell-based. The note with it: Mus musculus, 72 h treatment, mean ± SD. Here is the method: as §1, §2
In the next data set the test system is HCC1937. The data set is described as above. The data set is classed as cell-based. The following applies: Homo sapiens, 72 h treatment, mean ± SD. The protocol:
as §1, §2

The next data set relates to BT-474. Described as above. The following applies: Homo sapiens, 72 h treatment, mean ± SD. It is filed as cell-based. The protocol:
as §1, §2

Another data set deals with MCF-7. The data set is described as above. The data set is classed as cell-based. The following applies: Homo sapiens, MCF7, 72 h treatment, mean ± SD. The protocol: as §1, §2
The next data set relates to HepG2 cell line. Details: method as in PMID 34237623. The note with it: read-out: IC50 against the HepG2 cell line; cited from earlier work.

Turning to `O=c1[nH]c(Nc2ccccc2)nc2ccccc12` [Compound 15, 2-(phenylamino)quinazolin-4(1H)-one], the “anti-proliferative / cytotoxic effect” value in data set [1] (72 h) is given as “did not show any cytotoxic effect”.
For orientation: IC50 means the concentration at which inhibition is half-maximal. Turning to `O=c1[nH]c(Nc2ccc(Cc3ccc([N+](=O)[O-])cc3[N+](=O)[O-])cc2)nc2ccccc12` [Compound 24], the IC50 is 11.2 ± 1.8 µM in the data set on MDA-MB-468; 11.3 ± 3.5 µM in the data set on 4T1; 11 ± 1.9 µM in the data set with HCC1937; 9.7 ± 1.3 µM in the data set with BT-474; 10.3 ± 1.3 µM in the data set on MCF-7; below 30 µg/mL in data set [1] (72 h). Moreover, in data set [1] (72 h), the “concentration below which active in cytotoxicity screening” value (“concentration below which active” for short) is reported as “below 10 µM”. Further, in data set [1] (72 h), the “anti-proliferative / cytotoxic effect” value is “significantly reduced cell proliferation”. Besides, the “reduction of cell viability” value in data set [1] is recorded as at least 50%.
Regarding `O=c1[nH]c(Nc2ccccc2)nc2ccc([N+](=O)[O-])cc12` [Compound 47], the IC50 in the data set with MDA-MB-468 was 8 ± 0.3 µM; in the data set on 4T1 it was 12.6 ± 1.2 µM; in the data set on HCC1937 it was 4.4 ± 0.3 µM; in the data set on BT-474, 4.5 ± 0.2 µM; with MCF-7 it was 6.3 ± 0.4 µM; in data set [1] (72 h) it was below 30 µg/mL. Further, the “concentration below which active” value in data set [1] (72 h) was “below 10 µM”. Further, the “anti-proliferative / cytotoxic effect” value in data set [1] (72 h) is “significantly reduced cell proliferation”. For the same molecule, in data set [1], the “reduction of cell viability” value is given as at least 50%.
Consider `Nc1ccc2nc(Nc3ccccc3)[nH]c(=O)c2c1` [Compound 49], for which the “anti-proliferative / cytotoxic effect” value in data set [1] (72 h) is reported as “completely lack cytotoxic activity”.
Consider `COc1cc(C(=O)c2nc3ccccc3c(=O)[nH]2)cc(OC)c1OC` [2-(3,4,5-trimethoxybenzoyl)quinazolin-4(3H)-one], for which the IC50 in the data set on HepG2 cell line was 1.22 ± 0.12 µM.
`Nc1ccc2c(=O)[nH]c(Nc3ccccc3)nc2c1` [Compound 48]: the “anti-proliferative / cytotoxic effect” value in data set [1] (72 h) is “completely lack cytotoxic activity”.
Regarding `O=c1[nH]c(Nc2ccccc2)nc2cc([N+](=O)[O-])ccc12` [Compound 46], the IC50 in the data set with MDA-MB-468 is 6.9 ± 0.2 µM; in the data set with 4T1 it was 7.9 ± 0.6 µM; in the data set with HCC1937, 3.9 ± 0.2 µM; in the data set on BT-474, 4.4 ± 0.1 µM; in the data set with MCF-7 it was 5.7 ± 0.6 µM; in data set [1] (72 h), below 30 µg/mL. In addition, the “concentration below which active” value in data set [1] (72 h) is listed as “below 10 µM”. Also, in data set [1] (72 h), the “anti-proliferative / cytotoxic effect” value is “significantly reduced cell proliferation”. Further, the “reduction of cell viability” value in data set [1] is at least 50%.
Take `O=c1[nH]c(Nc2ccc(Cl)cc2)nc2ccccc12` [Compound 22]: the IC50 was 13 ± 0.4 µM with MDA-MB-468; 23.5 ± 7.2 µM in the data set on 4T1; 14.8 ± 3.7 µM with HCC1937; 9.9 ± 1.5 µM in the data set with BT-474; 10 ± 0.5 µM in the data set on MCF-7; below 30 µg/mL in data set [1] (72 h). For the same molecule, the “cytotoxicity relative to compound 19” value in data set [1] (72 h, CV assay) was “twofold less”. The “concentration below which active” value in data set [1] (72 h) is “below 10 µM”. Besides, the “anti-proliferative / cytotoxic effect” value in data set [1] (72 h) is “significantly reduced cell proliferation”. Further, the “reduction of cell viability” value in data set [1] is at least 50%.
